Values after ≈ are worked out from the molar mass of the structure shown. Read-outs that look alike come from different tables or passages of the source.
Legend:
Mtb [1] = assay: microbe, parasite or virus in culture; type: cell-based, Mycobacterium tuberculosis; conditions: for MIC: Mycobacterium tuberculosis, read-out: MIC (II)
Mtb [2] = assay: microbe, parasite or virus in culture; type: cell-based, Mycobacterium tuberculosis; conditions: Mycobacterium tuberculosis, read-out: MIC (III)
in vitro = conditions: African green monkey
Mtb [3] = assay: microbe, parasite or virus in culture; type: cell-based, Mycobacterium tuberculosis; conditions: Mycobacterium tuberculosis, read-out: MIC (I)

Structure (SMILES): CCOC(=O)c1c(NC(=O)c2ccnc(NC(C)=O)c2)sc2c1CCCC2 [Compound 186]
- MIC (Mtb [1]): > 3 µg/mL

Structure (SMILES): CCOC(=O)N(C)C(=O)c1ccsc1NC(=O)c1ccnc(NC(C)=O)c1 [Compound 189]
- MIC (Mtb [1]): > 3 µg/mL

Structure (SMILES): CCOCCOCCOC(=O)NC(=O)c1ccsc1NC(=O)c1nc2ccccc2s1 [Compound 206]
- MIC (Mtb [1]): > 3 µg/mL

Structure (SMILES): CCOC(=O)NC(=O)c1ccsc1NC(=O)c1ncccn1 [Compound 197]
- MIC (Mtb [1]): > 3 µg/mL

Structure (SMILES): CCOC(=O)NC(=O)c1ccsc1NC(=O)c1ccc(C(C)(F)F)nc1 [Compound 157]
- MIC (Mtb [1]): > 3 µg/mL

Structure (SMILES): CCOC(=O)NC(=O)c1ccsc1NC(=O)c1cn2c(-c3ccc(C(F)(F)F)cc3)cnc2cn1 [Compound 202]
- MIC (Mtb [1]): > 3 µg/mL

Structure (SMILES): CCOC(=O)NC(=O)c1ccsc1NC(=O)c1ccncn1 [Compound 165]
- MIC (Mtb [1]): > 3 µg/mL

Structure (SMILES): CCOC(=O)NC(=O)c1ccsc1NC(=O)c1cccc(F)c1 [Compound 172]
- MIC (Mtb [1]): > 3 µg/mL

Structure (SMILES): CCOC(=O)NC(=O)c1ccccc1NC(=O)c1ccnc(NC(C)=O)c1 [Compound 187]
- MIC (Mtb [1]): > 3 µg/mL

Structure (SMILES): CC(C)c1nnc(NC(=O)c2ccsc2NC(=O)c2nc3ccccc3s2)o1 [Compound 160]
- MIC (Mtb [1]): > 3 µg/mL

Structure (SMILES): CCOC(=O)NC(=O)c1ccsc1NC(=O)c1ccc2c(c1)NC(=O)CS2 [Compound 9]
- MIC (Mtb [1]): 1 to 3 µg/mL (≈ 2.47 to 7.4 µM)

Structure (SMILES): CC(=O)Nc1cc(C(=O)Nc2sccc2S(=O)(=O)c2ccccc2)ccn1 [Compound 156]
- MIC (Mtb [1]): > 3 µg/mL

Structure (SMILES): CCOC(=O)NC(=O)c1ccsc1NC(=O)c1ccnc(NC(=O)c2ccc(F)cc2)c1 [Compound 8]
- MIC (Mtb [1]): 1 to 3 µg/mL (≈ 2.19 to 6.57 µM)

Structure (SMILES): CCOC(=O)NC(=O)c1ccsc1NC(=O)c1ccc2[nH]c(C)nc2c1 [Compound 199]
- MIC (II) (Mtb [1]): C (key: A: <1 μg/mL; B: 1-3 μg/mL; C: >3 μg/mL)

Structure (SMILES): CCOC(=O)NC(=O)c1ccsc1NC(=O)c1ccnc(NC(=O)OCc2ccccc2)c1 [Compound 154]
- MIC (Mtb [1]): > 3 µg/mL

Structure (SMILES): C#CCNC(=O)[C@H](CCC1(C)N=N1)NC(=O)CCC(=O)Nc1cc(C(=O)Nc2sccc2C(=O)NC(=O)OCC)ccn1 [Compound 98]
- MIC (Mtb [1]): 1 to 3 µg/mL (≈ 1.64 to 4.91 µM)

Structure (SMILES): CCOC(=O)NC(=O)c1ccsc1NC(=O)c1sc2ncnc(O)c2c1C [Compound 151]
- MIC (Mtb [1]): > 3 µg/mL

Structure (SMILES): CCOC(=O)NC(=O)c1ccsc1NC(=O)c1ccc2c(c1)nc(C(F)(F)F)n2C(C)C [Compound 204]
- MIC (Mtb [1]): > 3 µg/mL

Structure (SMILES): COC(=O)NC(=O)c1ccsc1NC(=O)c1ccc(Oc2ccccc2)cc1 [Compound 200]
- MIC (Mtb [1]): > 3 µg/mL

Structure (SMILES): CCOC(=O)NC(=O)c1ccsc1NC(=O)c1cncnc1 [Compound 164]
- MIC (Mtb [1]): > 3 µg/mL

Structure (SMILES): CCOC(=O)NC(=O)c1ccsc1NC(=O)c1ccnc(N(C)C)c1 [Compound 168]
- MIC (Mtb [1]): > 3 µg/mL

Structure (SMILES): CCOC(=O)NC(=O)c1ccsc1NC(=O)c1cc2cc(Cl)ccc2[nH]1 [Compound 196]
- MIC (Mtb [1]): > 3 µg/mL

Structure (SMILES): CCOC(=O)NC(=O)c1ccsc1NC(=O)c1nn(C)c2ccccc12 [Compound 201]
- MIC (Mtb [1]): > 3 µg/mL

Structure (SMILES): CC(=O)Nc1cc(C(=O)Nc2sccc2S(C)(=O)=O)ccn1 [Compound 184]
- MIC (Mtb [1]): > 3 µg/mL

Structure (SMILES): CCOC(=O)NC(=O)c1ccsc1NC(=O)c1nc2cc(OC)ccc2s1 [Compound 6]
- MIC (Mtb [1]): < 1 µg/mL

Structure (SMILES): CCOC(=O)NC(=O)c1ccsc1NC(=O)C1CCN(c2ccccn2)CC1 [Compound 155]
- MIC (Mtb [1]): > 3 µg/mL

Structure (SMILES): CC(=O)Nc1cc(C(=O)Nc2sccc2C(=O)Nc2ccc(Cl)cc2)ccn1 [Compound 182]
- MIC (Mtb [1]): > 3 µg/mL

Structure (SMILES): CCOC(=O)NC(=O)c1ccsc1NC(=O)c1ccncc1 [Compound 170]
- MIC (Mtb [1]): > 3 µg/mL

Structure (SMILES): CCOC(=O)NC(=O)c1c(NC(=O)c2ccnc(NC(C)=O)c2)sc2c1CCCC2 [Compound 185]
- MIC (Mtb [1]): > 3 µg/mL

Structure (SMILES): CCOC(=O)NC(=O)c1ccsc1NC(=O)c1ccc(S(C)(=O)=O)c([N+](=O)[O-])c1 [Compound 148]
- MIC (Mtb [1]): > 3 µg/mL

Structure (SMILES): O=C(Nc1sccc1C(=O)NCc1ccccc1)c1nc2ccccc2s1 [Compound 191]
- MIC (Mtb [1]): > 3 µg/mL

Structure (SMILES): CCOC(=O)NC(=O)c1ccsc1NC(=O)c1c(F)cc(F)cc1F [Compound 176]
- MIC (Mtb [1]): > 3 µg/mL

Structure (SMILES): CCOC(=O)NC(=O)c1ccsc1NC(=O)c1cncs1 [Compound 158]
- MIC (Mtb [1]): > 3 µg/mL

Structure (SMILES): CCOC(=O)NC(=O)c1c(NC(=O)c2ccnc(NC(C)=O)c2)sc2c1CCN(CC)C2 [Compound 188]
- MIC (Mtb [1]): > 3 µg/mL

Structure (SMILES): CCOC(=O)NC(=O)c1ccsc1NC(=O)c1ccc2[nH]c(S)nc2c1 [Compound 162]
- MIC (II) (Mtb [1]): C (key: A: <1 μg/mL; B: 1-3 μg/mL; C: >3 μg/mL)

Structure (SMILES): CCOC(=O)NC(=O)c1ccsc1NC(=O)c1c(F)ccc(C)c1F [Compound 175]
- MIC (Mtb [1]): > 3 µg/mL

Structure (SMILES): CCOC(=O)NC(=O)c1ccsc1NC(=O)c1ccc(S(C)(=O)=O)c(N)c1 [Compound 150]
- MIC (Mtb [1]): > 3 µg/mL

Structure (SMILES): CCNC(=O)Nc1cc(C(=O)Nc2sccc2C(=O)NC(=O)OCC)ccn1 [Compound 7]
- MIC (Mtb [1]): < 1 µg/mL

Structure (SMILES): COC(=O)Nc1cc(C(=O)Nc2sccc2C(=O)Nc2ccccn2)ccn1 [Compound 198]
- MIC (Mtb [1]): > 3 µg/mL

Structure (SMILES): CCOC(=O)NC(=O)c1ccsc1NC(=O)C1CCCCC1 [Compound 177]
- MIC (Mtb [1]): > 3 µg/mL

Structure (SMILES): CCOC(=O)NC(=O)c1ccsc1NC(=O)Cc1ccccc1 [Compound 171]
- MIC (Mtb [1]): > 3 µg/mL

Structure (SMILES): CCOC(=O)NC(=O)c1ccsc1NC(=O)c1nc2cnc(C)cc2s1 [Compound 94]
- MIC (Mtb [2]): > 25 µg/mL
- CC50 (in vitro): > 50 µg/mL
- MIC (Mtb [3]): < 1 µg/mL

Structure (SMILES): CCOC(=O)NC(=O)c1ccsc1NC(=O)c1nc2ncccn2n1 [Compound 125]
- MIC (Mtb [2]): 5 to 25 µg/mL (≈ 13.9 to 69.4 µM)
- CC50 (in vitro): > 50 µg/mL
- MIC (Mtb [3]): > 3 µg/mL

Structure (SMILES): CCOC(=O)NC(=O)c1ccsc1NC(=O)c1ccc2c(c1)CCO2 [Compound 132]
- MIC (Mtb [2]): 5 to 25 µg/mL (≈ 13.9 to 69.4 µM)
- CC50 (in vitro): > 50 µg/mL
- MIC (Mtb [3]): > 3 µg/mL

Structure (SMILES): CCOC(=O)NC(=O)c1ccsc1NC(=O)c1noc(C)n1 [Compound 74]
- MIC (Mtb [2]): > 25 µg/mL
- CC50 (in vitro): 25 to 50 µg/mL (≈ 77.1 to 154 µM)
- MIC (Mtb [3]): > 3 µg/mL

Structure (SMILES): CCOC(=O)NC(=O)c1ccsc1NC(=O)c1nc2c(N(C)C)nccc2s1 [Compound 270]
- MIC (Mtb [2]): > 25 µg/mL
- CC50 (in vitro): > 50 µg/mL
- MIC (Mtb [3]): < 1 µg/mL

Structure (SMILES): CCOC(=O)NC(=O)c1ccsc1NC(=O)c1ccnc(NC(=O)N2CCC(F)(F)CC2)c1 [Compound 50]
- MIC (Mtb [2]): > 25 µg/mL
- CC50 (in vitro): 25 to 50 µg/mL (≈ 51.9 to 104 µM)
- MIC (Mtb [3]): < 1 µg/mL

Structure (SMILES): O=C(NC(=O)c1ccsc1NC(=O)c1nc2ccccc2s1)OC1COC1 [Compound 35]
- MIC (Mtb [2]): > 25 µg/mL
- CC50 (in vitro): < 25 µg/mL
- MIC (Mtb [3]): < 1 µg/mL

Structure (SMILES): CCOC(=O)NC(=O)c1ccsc1NC(=O)c1cc2ccccn2c1 [Compound 310]
- MIC (Mtb [2]): > 25 µg/mL
- CC50 (in vitro): > 50 µg/mL
- MIC (Mtb [3]): > 3 µg/mL

Structure (SMILES): CC(C)OC(=O)NC(=O)c1cc(F)sc1NC(=O)c1nc2cccnc2s1 [Compound 344]
- MIC (Mtb [2]): > 25 µg/mL
- CC50 (in vitro): 25 to 50 µg/mL (≈ 61.2 to 122 µM)
- MIC (Mtb [3]): < 1 µg/mL

Structure (SMILES): CCOC(=O)NC(=O)c1ccsc1NC(=O)c1ccc(=O)n(C)c1 [Compound 140]
- MIC (Mtb [2]): 5 to 25 µg/mL (≈ 14.3 to 71.6 µM)
- CC50 (in vitro): > 50 µg/mL
- MIC (Mtb [3]): > 3 µg/mL

Structure (SMILES): COC(=O)NC(=O)c1ccsc1NC(=O)c1cn2ccccc2n1 [Compound 347]
- MIC (Mtb [2]): > 25 µg/mL
- CC50 (in vitro): 25 to 50 µg/mL (≈ 72.6 to 145 µM)
- MIC (Mtb [3]): > 3 µg/mL

Structure (SMILES): CC(C)OC(=O)NC(=O)c1ccsc1NC(=O)c1cnc2ccsc2c1 [Compound 395]
- MIC (Mtb [2]): > 25 µg/mL
- CC50 (in vitro): < 25 µg/mL
- MIC (Mtb [3]): < 1 µg/mL

Structure (SMILES): CCOC(=O)NC(=O)c1ccsc1NC(=O)c1ccnc2ccc(OC)cc12 [Compound 123]
- MIC (Mtb [2]): 5 to 25 µg/mL (≈ 12.5 to 62.6 µM)
- CC50 (in vitro): > 50 µg/mL
- MIC (Mtb [3]): > 3 µg/mL

Structure (SMILES): CCOC(=O)NC(=O)c1ccsc1NC(=O)c1cc(C)nc2ccccc12 [Compound 122]
- MIC (Mtb [2]): > 25 µg/mL
- CC50 (in vitro): > 50 µg/mL
- MIC (Mtb [3]): > 3 µg/mL

Structure (SMILES): CCOC(=O)NC(=O)c1ccsc1NC(=O)c1ccc2cccnc2c1 [Compound 63]
- MIC (Mtb [2]): 5 to 25 µg/mL (≈ 13.5 to 67.7 µM)
- CC50 (in vitro): > 50 µg/mL
- MIC (Mtb [3]): < 1 µg/mL

Structure (SMILES): CN1CCCN(C(=O)c2ccsc2NC(=O)c2nc3ccccc3s2)CC1 [Compound 254]
- MIC (Mtb [2]): > 25 µg/mL
- CC50 (in vitro): > 50 µg/mL
- MIC (Mtb [3]): > 3 µg/mL
